Measurements as given in patent US6472348B1, “Pyridone derivatives and herbicides” (Kumiai Chemical Industry Co., Ltd., priority 1996, dated 2002).
Blank lines part the entries; values can stand above or below the compound they belong to.

Assays:
Diaitaria ciliaris (Di) [1] = assay: Test Example 4: crop plant selectivity by upland field soil treatment (cotton), herbicidal effects; assay type: in vivo; conditions: evaluated 21st day after application
Experimental: (§1) (Test on Crop Plant Selectivity by Upland Field Soil Treatment)
In a plastic pot (surface area: 600 cm^2) filled with sand, cotton (Go), Diaitaria ciliaris (Di), green foxtail (Se), pale smartweed (Po), slender amaranth (Am), common lambsquarters (Ch) and China jute (Ab) were sown and covered with soil. […] The plants were then cultured in a green house, and the evaluation of the herbicidal effects and phytotoxicity was conducted on the 21st day after the application in accordance with the standards as identified in Table 47. Symbol—represents “not tested”.

Diaitaria ciliaris (Di) [2] = assay: Test Example 5: crop plant selectivity by upland field soil treatment (wheat), herbicidal effects; assay type: in vivo; conditions: 21st day after application
Experimental: as §1
In a plastic pot (surface area: 600 cm^2) filled with sand, wheat (Tr), Diaitaria ciliaris (Di), green foxtail (Se), pale smartweed (Po), slender amaranth (Am), common lambsquarters (Ch) and China jute (Ab) were sown and covered with soil. […] The plants were then cultured in a green house, and the evaluation of the herbicidal effects and phytotoxicity was conducted on the 21st day after the application in accordance with the standards as identified in Table 47. Symbol—represents “not tested”.

Diaitaria ciliaris (Di) [3] = assay: Test Example 6: crop plant selectivity by upland field soil treatment (soybean), herbicidal effects; assay type: in vivo; conditions: 21st day after application
Experimental: as §1
(§2) In a plastic pot (surface area: 600 cm^2) filled with sand, soybean (Gl), Diaitaria ciliaris (Di), green foxtail (Se), Johnsongrass (So), pale smartweed (Po), slender amaranth (Am), common lambsquarters (Ch) and China jute (Ab) were sown and covered with soil. […] The plants were then cultured in a green house, and the evaluation of the herbicidal effects and phytotoxicity was conducted on the 21st day after the application in accordance with the standards as identified in Table 47. Symbol—represents “not tested”.

Johnsongrass (So) = assay: as above; assay type: in vivo; conditions: 21st day after application
Experimental: as §1, §2

China jute (Ab) [4] = assay: Test Example 10: crop plant selectivity by upland field foliage treatment (soybean), herbicidal effects; assay type: in vivo; conditions: dose 1.6 g ai/10a, 14th day after treatment
Outline: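 Soybean and weeds were grown in sand in a greenhouse for 2 weeks before foliar treatment. Herbicidal effect on weeds and phytotoxicity on soybean were scored on day 14 after treatment against a graded scale.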

cotton (Go) = assay: Test Example 8: crop plant selectivity by upland field foliage treatment (cotton), phytotoxicity; assay type: in vivo; conditions: dose 1.6 g ai/10a, 14th day after treatment
Experimental: (§3) (Test on Crop Plant Selectivity by Upland Field Foliage Treatment)
(§4) In a plastic pot (surface area: 600 cm^2) filled with sand, cotton (Go), pale smartweed (Po), slender amaranth (Am), common lambsquarters (Ch) and China jute (Ab) were sown and cultured in a green house for 2 weeks. […] The plants were then cultured in a green house, and the evaluation of the herbicidal effects and phytotoxicity was conducted on the 14th day after the treatment in accordance with the standards as identified in Table 47.

China jute (Ab) [5] = assay: Test Example 8: crop plant selectivity by upland field foliage treatment (cotton), herbicidal effects; assay type: in vivo; conditions: dose 1.6 g ai/10a, 14th day after treatment
Experimental: as §3, §4

[6] = system: common lambsquarters (Ch); assay: as above; assay type: in vivo; conditions: dose 1.6 g ai/10a, 14th day after treatment
Experimental: as §3, §4

pale smartweed (Po) = assay: as above; assay type: in vivo; conditions: dose 1.6 g ai/10a, 14th day after treatment
Experimental: as §3, §4

slender amaranth (Am) = assay: as above; assay type: in vivo; conditions: dose 1.6 g ai/10a, 14th day after treatment
Experimental: as §3, §4

Structure (SMILES): C#CC(C)Oc1cc(-c2cn(C)c(C(F)(F)F)cc2=O)c(F)cc1Cl (racemic) [Compound 6-10]
Herbicidal effects Di (Diaitaria ciliaris (Di) [1]; dose 1.6 g ai/10 a): 5 | Herbicidal effects Di (Diaitaria ciliaris (Di) [1]; dose 6.3 g ai/10 a): 5 | Herbicidal effects Di (Diaitaria ciliaris (Di) [2]; dose 1.6 g ai/10a): 5 | Herbicidal effects Di (Diaitaria ciliaris (Di) [3]; dose 1.6 g ai/10a): 5 | Herbicidal effects So (Johnsongrass (So); dose 1.6 g ai/10a): 5

Structure (SMILES): COc1cc(-c2ccc(C(F)(F)F)n(C)c2=O)c(F)cc1Cl [1-15]
Herbicidal effects Di (Diaitaria ciliaris (Di) [1]; dose 6.3 g ai/10 a): 5

Structure (SMILES): Cn1c(C(F)(F)F)ccc(-c2cc(OCCCl)c(Cl)cc2F)c1=O [1-171]
Herbicidal effects Ab (China jute (Ab) [4]): 5

Structure (SMILES): C=CC(C)Oc1cc(-c2ccc(C(F)(F)F)n(C)c2=O)c(F)cc1Cl (centres unmarked) [Compound 1-182]
Phytotoxicity Go (cotton (Go)): 2 | Herbicidal effects Ab (China jute (Ab) [5]): 5 | Herbicidal effects Ch [6]: 5 | Herbicidal effects Po (pale smartweed (Po)): 5 | Herbicidal effects Am (slender amaranth (Am)): 5

Structure (SMILES): CCON=Cc1cc(-c2ccc(C(F)(F)F)n(C)c2=O)c(F)cc1Cl [Compound 1-187]
Phytotoxicity Go (cotton (Go)): 2 | Herbicidal effects Ab (China jute (Ab) [5]): 5 | Herbicidal effects Ch [6]: 5 | Herbicidal effects Po (pale smartweed (Po)): 5 | Herbicidal effects Am (slender amaranth (Am)): 5 | Herbicidal effects Ab (China jute (Ab) [4]): 5

Structure (SMILES): CSCOc1cc(-c2ccc(C(F)(F)F)n(C)c2=O)c(F)cc1Cl [Compound 1-208]
Herbicidal effects Ab (China jute (Ab) [4]): 5

Structure (SMILES): C=CCN1C(=O)COc2cc(F)c(-c3ccc(C(F)(F)F)n(C)c3=O)cc21 [Compound 2-7]
Herbicidal effects Di (Diaitaria ciliaris (Di) [1]; dose 1.6 g ai/10 a): 5 | Herbicidal effects Di (Diaitaria ciliaris (Di) [1]; dose 6.3 g ai/10 a): 5 | Herbicidal effects Di (Diaitaria ciliaris (Di) [2]; dose 1.6 g ai/10a): 5 | Herbicidal effects Di (Diaitaria ciliaris (Di) [3]; dose 1.6 g ai/10a): 5 | Herbicidal effects Di (Diaitaria ciliaris (Di) [3]; dose 6.3 g ai/10a): 5 | Herbicidal effects So (Johnsongrass (So); dose 1.6 g ai/10a): 5 | Herbicidal effects So (Johnsongrass (So); dose 6.3 g ai/10a): 5

Structure (SMILES): CCCc1cc2c(-c3ccc(C(F)(F)F)n(C)c3=O)c(F)cc(Cl)c2o1 [Compound 4-3]
Herbicidal effects Ab (China jute (Ab) [4]): 5

Structure (SMILES): CCc1cc2c(Cl)cc(F)c(-c3ccc(C(F)(F)F)n(C)c3=O)c2o1 [Compound 5-2]
Herbicidal effects Ab (China jute (Ab) [4]): 5

melting point: 180 to 181 °C
Structure (SMILES): Cn1c(C(F)(F)F)ccc(-c2cc(C#N)c(Cl)cc2F)c1=O [Compound No. 1-119, 3-(4-chloro-5-cyano-2-fluorophenyl)-1-methyl-6-trifluoromethyl-2(1H)-pyridone]
Herbicidal effects Ab (China jute (Ab) [4]): 4

Structure (SMILES): CCCC(=O)c1cc(-c2ccc(C(F)(F)F)n(C)c2=O)c(F)cc1Cl [Compound No. 1-194, 3-[4-chloro-2-fluoro-5-(1-oxobutyl)phenyl]-1-methyl-6-trifluoromethyl-2(1H)-pyridone]
Phytotoxicity Go (cotton (Go)): 2 | Herbicidal effects Ab (China jute (Ab) [5]): 5 | Herbicidal effects Ch [6]: 5 | Herbicidal effects Po (pale smartweed (Po)): 5 | Herbicidal effects Am (slender amaranth (Am)): 5

Structure (SMILES): C#CCN1C(=O)COc2cc(F)c(-c3ccc(C(F)(F)F)n(C)c3=O)cc21 [Compound No. 2-1, 3-[7-fluoro-2,3-dihydro-4-(2-propynyl)-1,4-benzoxazin-3-on-6-yl]-1-methyl-6-trifluoromethyl-2(1H)-pyridone]
Herbicidal effects Di (Diaitaria ciliaris (Di) [1]; dose 1.6 g ai/10 a): 5 | Herbicidal effects Di (Diaitaria ciliaris (Di) [2]; dose 1.6 g ai/10a): 5 | Herbicidal effects Di (Diaitaria ciliaris (Di) [3]; dose 1.6 g ai/10a): 5 | Herbicidal effects Di (Diaitaria ciliaris (Di) [3]; dose 6.3 g ai/10a): 5 | Herbicidal effects So (Johnsongrass (So); dose 1.6 g ai/10a): 5 | Herbicidal effects So (Johnsongrass (So); dose 6.3 g ai/10a): 5

melting point: 150 to 151 °C
Structure (SMILES): C#CCn1c(=O)sc2cc(F)c(-c3ccc(C(F)(F)F)n(C)c3=O)cc21 [Compound No. 3-1, 3-[6-fluoro-3-(2-propynyl)-benzothiazolin-2-on-5-yl]-1-methyl-6-trifluoromethyl-2(1H)-pyridone]

melting point: 136 to 137 °C
Structure (SMILES): COCc1cc2c(-c3ccc(C(F)(F)F)n(C)c3=O)c(F)cc(Cl)c2o1 [Compound No. 4-4, 3-(7-chloro-5-fluoro-2-methoxymethylbenzofuran-4-yl)-1-methyl-6-trifluoromethyl-2-(1H)-pyridone]

melting point: 145 to 147 °C
Structure (SMILES): Cn1c(C(F)(F)F)ccc(-c2c(F)cc(Cl)c3oc(CO)cc23)c1=O [Compound No. 4-5, 3-(7-chloro-5-fluoro-2-hydroxymethylbenzofuran-4-yl)-1-methyl-6-trifluoromethyl-2-(1H)-pyridone]

melting point: 178 to 179 °C
Structure (SMILES): Cn1c(C(F)(F)F)ccc(-c2c(F)cc(Cl)c3occc23)c1=O [Compound No. 4-28, 3-(7-chloro-5-fluorobenzofuran-4-yl)-1-methyl-6-trifluoromethyl-2-(1H)-pyridone]

melting point: 159 to 161 °C
Structure (SMILES): Cn1cc(-c2cc(Oc3ccccc3)c(Cl)cc2F)c(=O)cc1C(F)(F)F [Compound No. 6-19, 5-(4-chloro-2-fluoro-5-phenoxyphenyl)-1-methyl-2-trifluoromethyl-4(1H)-pyridone]
Herbicidal effects Di (Diaitaria ciliaris (Di) [1]; dose 1.6 g ai/10 a): 5 | Herbicidal effects Di (Diaitaria ciliaris (Di) [1]; dose 6.3 g ai/10 a): 5 | Herbicidal effects Di (Diaitaria ciliaris (Di) [2]; dose 1.6 g ai/10a): 5 | Herbicidal effects Di (Diaitaria ciliaris (Di) [2]; dose 6.3 g ai/10a): 5 | Herbicidal effects Di (Diaitaria ciliaris (Di) [3]; dose 1.6 g ai/10a): 5 | Herbicidal effects Di (Diaitaria ciliaris (Di) [3]; dose 6.3 g ai/10a): 5 | Herbicidal effects So (Johnsongrass (So); dose 1.6 g ai/10a): 4 | Herbicidal effects So (Johnsongrass (So); dose 6.3 g ai/10a): 5

melting point: 208 to 211 °C
Structure (SMILES): Cc1cc2c(-c3cn(C)c(C(F)(F)F)cc3=O)c(F)cc(Cl)c2o1 [Compound No. 9-1, 5-(7-chloro-5-fluoro-2-methylbenzofuran-4-yl)-1-methyl-2-trifluoromethyl-4(1H)-pyridone]
Herbicidal effects Di (Diaitaria ciliaris (Di) [1]; dose 1.6 g ai/10 a): 5 | Herbicidal effects Di (Diaitaria ciliaris (Di) [1]; dose 6.3 g ai/10 a): 5 | Herbicidal effects Di (Diaitaria ciliaris (Di) [2]; dose 1.6 g ai/10a): 5 | Herbicidal effects Di (Diaitaria ciliaris (Di) [2]; dose 6.3 g ai/10a): 5
